Where a name gives a salt, the structure may show the parent alone.
target: Protein kinase C (PKC); experiment: Protein kinase C assay (96-well, H1 histone phosphorylation, 32P-ATP); format: biochemical; details: PKC partially purified from rat brain; H1 histone 200 μg, 50 μM ATP, 5-7 min, room temperature; estimated error of IC50 less than 10%
Protocol: Protein kinase C (PKC) was partially purified from the cytosol of rat brains as described by […]., Thromb. Res. 44:649-660, 1986. After removing the brains, all manipulations were carried out at 4° C. Briefly, the cerebellum was removed from 8-10 rat brains and each brain was then homogenized in 9 ml sucrose/EDTA (0.32 M sucrose, 1 mM EDTA, 5 mM Tris, pH 7.4). The pooled homogenate was then centrifuged at 1000×g for 10 min at 4° C., the pellet resuspended in the same volume of fresh sucrose/EDTA and recentrifuged at 1000×g for 10 min. at 4° C. The supernatants from each of these spins was pooled and centrifuged at 25,700×g for 30 min. at 4° C., and the resulting pellet homogenized in 20 ml of buffer A. (20 mM Tris pH 7.5, 0.1 mM calcium chloride, 0.4 mM leupeptin), at 4° C. Membrane associated PKC was then pelleted by centrifugation at 45,700×g at 4° C. for 15 min. and resuspended in 20 ml of buffer A. This step was repeated for a total of 3 centrifugations, discarding the supernatants and finally resuspending the pellet in 20 ml of buffer B (20 mM Tris pH 7.5, 1 mM EGTA, 1 mM EDTA, and 0.01 mM leupeptin) and stirring on ice for 30 min. Disassociated PKC was then collected by centrifuging at 45,700×g at 4° C. for 15 min. The pellet was discarded and the supernatant centrifuged at 100,000×g at 4° C. for 60 min. The pellet was again discarded and the supernatant was adjusted to remove all EDTA and EGTA by adding sufficient volume of a stock solution containing 100 mM each CaCl2 and MgCl2 to give a final concentration of 1 mM Ca^++ and 1 mM Mg^++. The resulting slurry was then applied to a 12 cm×1 cm DE-52 (DEAE cellulose, Whatman®) column previously equilibrated with buffer B. […] After washing the column with 70 ml of buffer B to remove unbound proteins, undesired proteins were eluted with 40 ml of buffer B containing 40 mM NaCl and the PKC containing fraction eluted with 20 ml of buffer B containing 150 mM NaCl. The PKC eluate was then concentrated to about 5 ml using an Amicon® ultrafiltration cell fitted with a PM-10 membrane, and excess NaCl removed by adding back 30 ml 5 mM Tris pH 7.4 and reconcentrating to a final volume of about 5 ml. The concentrated and desalted PKC prep was then adjusted to contain 10% glycerol and 0.5% Triton X-100 before aliquoting and storing 200 μL volumes at -70° C. Frozen preps were stable for at least 3 months at -70°0 C. Protein kinase C was assayed using a semi-automated 96-well plate procedure based upon the procedures of Aftab and Hait, and […] and Vial (Aftab, D. T. and W. N. Hait., Anal Biochem. 187:84-88. 1990.; […]. and Vial, H. J., Anal Biochem. 184:283-290. 1990). Briefly, each well of a 96 well "u" well microtiter plate received a total of 100 μl assay volume consisting of final concentrations of 30 mM Tris pH 7.4, 10 mM MgSO4, 1 mM EGTA, 200 μg Hl histone (Sigma Type III-S H5505), 50 μM ATP, 0.5 μCi 30 Ci/mmol ^32 P-ATP, and 30 μl PKC extract diluted in 5 mM Tris, pH 7.4 containing 1 mg per ml each of leupeptin, pepstatin and chymastatin, and 1 mM phenylmethylsulfonylfluoride. Reactions were started by adding the PKC extract and stopped by the addition of 50 μl 40% trichloroacetic acid, followed by 25 μl of 50 mM unlabelled ATP and 25 μl of 0.5% bovine serum albumin, and then collected on glass fiber filters using a Skatron® automatic micro cell harvester. Samples were washed for 30 seconds with 5% trichloroacetic acid, dried for 5 seconds on the harvester, and then transferred to scintillation vials for counting and subsequent data analysis. Reactions were run for five to seven minutes at room temperature. Data were fit to a competitive binding curve using the ENZFITTER® program (Biosoft). The error estimated for the IC50 values was less than 10%.

Question: With CCN(CC)CCOc1ccc2c(c1)C(=O)c1cccc(OCCN(CC)CC)c1-2 [I.D. No. 11,080, 2,5-Bis[(2-diethylamino)ethoxy]-fluoren-9-one] as the compound, how does the IC50 read?
Answer: 3 µM

Question: Which IC50 does the source give for CN(C)CCOc1ccc2c(c1)C(=O)c1cccc(OCCN(C)C)c1-2 [I.D. No. 101,209, 2,5-Bis-(2-dimethylamino-ethoxy)-fluoren-9-one] here?
Answer: 11 µM

Question: How did the IC50 turn out when CN(C)CCCOc1ccc2c(c1)C(=O)c1cccc(OCCCN(C)C)c1-2 [I.D. No. 102,352, 2,5-Bis-(3-dimethylamino-propoxy)-fluoren-9-one] was run?
Answer: 50 µM

Question: How did the IC50 turn out when CCCOc1ccc2c(c1)C(=O)c1cccc(OCCN(CC)CC)c1-2 [I.D. No. 103,049, 5-(2-Diethylamino-ethoxy)-2-propoxy-fluoren-9-one] was run?
Answer: 9 µM

Question: CCN(CC)CCCOc1cccc2c1-c1ccc(OC)cc1C2=O [I.D. No. 103,388, 5-(3-Diethylamino-propoxy)-2-methoxy-fluoren-9-one] was tested. Which IC50 did it give?
Answer: 56 µM

Question: CCN(CC)CCOc1cccc2c1-c1ccc(OC)cc1C2=O [I.D. No. 103,949, 5-(2-Diethylamino-ethoxy)-2-methoxy-fluoren-9-one] was tested. Which IC50 did it give?
Answer: 7 µM

Question: How did the IC50 turn out when CCN(CC)CCOc1ccc2c(c1)-c1c(OCCN(CC)CC)cccc1C2=O [I.D. No. 104,004, 3,5-Bis[(2-diethylamino)ethoxy]-fluoren-9-one] was run?
Answer: 4 µM

Question: With CCN(CC)CCOc1cccc2c1C(=O)c1cccc(OCCN(CC)CC)c1-2 [I.D. No. 104,147, 1,5-Bis[(diethylamino)ethoxy]-fluoren-9-one] as the compound, how does the IC50 read?
Answer: 15 µM

Question: For CCCOc1cc(OC)c2c(c1N)C(=O)c1cccc(OCCN3CCOCC3)c1-2 [I.D. No. 104,427, 5-[2-(morpholino-4-yl)-ethoxy]-1-amino-4-methoxy-2-propyloxy-fluoren-9-one hydrochloride], which IC50 is on record?
Answer: 2.3 µM

Question: With CCCOc1cc(OC)c2c(c1)C(=O)c1cccc(OCCN3CCOCC3)c1-2 [I.D. No. 104,439, 5-[2-(morpholino-4-yl)-ethoxy]-4-methoxy-2-propyloxy-fluoren-9-one hydrochloride] as the compound, how does the IC50 read?
Answer: > 10 µM

Question: CCN(CC)CCOc1cccc2c1-c1c(OCCN(CC)CC)cccc1C2=O [I.D. No. 104,488] was tested. Which IC50 did it give?
Answer: 92 µM

Question: For CCN(CC)CCOc1cccc2c1-c1c(OC)cccc1C2=O [I.D. No. 104,652, 4-(2-diethylamino-ethoxy)-5-methoxy-fluoren-9-one], which IC50 is on record?
Answer: 1 µM

Question: How did the IC50 turn out when CCCOc1cc(OC)c2c(c1)C(=O)c1cccc(OCCN(CC)CC)c1-2 [I.D. No. 104,952, 5-(2-diethylamino-ethoxy)-4-methoxy-2-propoxy-fluoren-9-one] was run?
Answer: 0.576 µM

Question: For CCN(CC)CCOc1cccc2c1-c1c(OC)cc(OC)c(N)c1C2=O [I.D. No. 105,473, 1-Amino-5-(2-diethylamino-ethoxy)-2,4-dimethoxy-fluoren-9-one hydrochloride], which IC50 is on record?
Answer: 0.16 µM

Question: With CCCOc1cc(OC)c2c(c1N)C(=O)c1cccc(OCCN(CC)CC)c1-2 [I.D. No. 105,509, 1-Amino-5-(2-diethylamino-ethoxy)-4-methoxy-2-propoxy-fluoren-9-one] as the compound, how does the IC50 read?
Answer: 0.079 µM

Question: For CCN(CC)CCOc1cc(OC)c2c(c1)C(=O)c1cccc(OCCN(CC)CC)c1-2 [I.D. No. 105,711, 2,5-bis-(2-diethylamino-ethoxy)-4-methoxy-fluoren-9-one], which IC50 is on record?
Answer: 1.1 µM

Question: CCN(CC)CCOc1cccc2c1-c1c(OC)cc(OC)cc1C2=O [I.D. No. 105,950, 5-(2-Diethylamino-ethoxy)-2,4-dimethoxy-fluoren-9-one] was tested. Which IC50 did it give?
Answer: 0.9 µM

Source: patent US6004959A, “Alkyloxyamino substituted fluorenones and their use as protein kinase-C inhibitors” (Hoechst Marion Roussel, Inc., priority 1997, dated 1999)
